One data set relates to melanin. Nature of the data set: Binding capacity of compounds to melanin. It counts as in vitro ADME, cuttlefish (Sepia officinalis). The note with it: cuttlefish (Sepia officinalis), melanin suspension (1 mg/mL); 1 mg/mL melanin in PBS pH 7.4, 2 μM compound, 2 h at 37° C.; read-out: Fu % (percentage of free drug). The method in brief:
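Compound (2 μM final) incubated with washed Sepia melanin (1 mg/mL, PBS pH 7.4) 2 h at 37° C with shaking; PBS with 0.1% BSA served as blank. Supernatants quantified by LC-MS/MS; bound fraction Fb derived from melanin versus blank concentration.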

The next data set deals with T1, TIE2 (Homo sapiens, UniProt Q02763).
T1 construct: purchased BPS 40270
The experiment in a line: Kinase inhibition, Mobility Shift Assay/IMAP, TIE2. Format: biochemical. The method in brief: (§1)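 Substrate conversion (phosphorylated vs non-phosphorylated) read by mobility shift on Caliper EZ Reader II and converted to % inhibition relative to no-enzyme and DMSO controls. IC50 fitted from % inhibition versus log compound concentration.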

The target in another data set is T2, EGFR (Homo sapiens, UniProt P00533).
T2 construct: purchased Carna 08-115
The experiment in a line: Kinase inhibition, Mobility Shift Assay/IMAP, EGFR. It counts as biochemical. In short, it runs like this: as §1

A further data set concerns the target T3, VEGFR1 (Homo sapiens, UniProt P17948).
T3 construct: purchased Invitrogen PR6731B
Nature of the data set: Kinase inhibition, Mobility Shift Assay/IMAP, VEGFR1. Format: biochemical. In short, it runs like this: as §1

The target in the next data set is VEGFR2 (Homo sapiens, UniProt P35968). The experiment in a line: Kinase inhibition, Mobility Shift Assay/IMAP, VEGFR2. Format: biochemical. Also on record: purchased Carna 08-191. The method in brief: as §1
A further data set concerns HUVEC cells. The experiment in a line: Inhibition of VEGF-induced HUVEC cell proliferation, CellTiter Glo. It counts as cell-based. The note with it: Homo sapiens, 20 ng/ml VEGF, 72 hours. From the text:
In this experiment, human umbilical vein endothelial cells (HUVEC, Lonza) were used. HUVEC cells are primary cells isolated from umbilical veins. This cell line is a model system to study the functions of endothelial cells. Endothelial cell proliferation in response to VEGF is crucial to the pathological angiogenesis associated with conditions such as tumor development and ocular neovascular diseases.
In this assay, a luciferase bioluminescence assay (CellTiter GLU™, Promega) is used to determine the inhibitory activity of the compounds against VEGF-induced HUVEC cell proliferation and viability. CellTiter GLO™ is a homogeneous method for quantifying the count of viable cells in culture based on ATP, an indicator of metabolically active cells. In this assay, the compound was incubated with HUVEC cells for 72 hours, and then the inhibitory activity of the resulting compound against VEGF-induced HUVEC cell proliferation was measured on the En Vision plate reader.
With the RPMI-1640 medium (plus 5% FBS, 1% Penicillin-Streptomycin) used for the HUVEC cell proliferation experiment, add a cell suspension to a 96-well plate at 100 μl per well, i.e., 4000 HUVEC cells/well, and incubate them overnight in a 5% CO2 incubator at 37° C. (serum starvation). After 24 hours, add 96 μl of the experimental medium to the cell wells, and then add 2 μl of the compound to the cell wells; and after 1 hour following the addition of the compound, add 2 μl of 2 μg/ml VEGF to the cell wells. Add 0.1% DMSO and 20 ng/ml VEGF to cell wells to serve as high-reading control wells. Take cell-free wells with only medium as low-reading control wells. […] After 72 hours of incubation of the cell plate in the incubator, hold the cell plate to be tested at room temperature and discard 100 μl of medium per well. Add 100 μl of CTG reagent (CellTiter Glo kit) per well, oscillate the cell plate in a fast oscillator for 3 minutes, and keep the cell plate at room temperature in the dark for 30 minutes. Read the chemiluminescence signal value with the Envision instrument.
X indicates the log value of compound concentration, Y indicates the inhibition rate (% inhibition), Top indicates the readout of the high-reading control well.

The target in a further data set is T4, VEGFR3 (Homo sapiens, UniProt P35916).
T4 construct: purchased Invitrogen PV4129
The experiment in a line: Kinase inhibition, Mobility Shift Assay/IMAP, VEGFR3. Format: biochemical. From the text:
This assay directly monitored the ability of compounds to inhibit kinase phosphorylation by measuring non-phosphorylated and phosphorylated substrates in kinase reactions by using Mobility Shift Assays/IMAP™ analysis.
Read the conversion ratio data on CaliperEZ Reader II. Convert conversion rates into inhibition ratio data.
“Min” indicates the readout of the control well without the addition of enzymes; and “Max” indicates the readout of the control well with the addition of DMSO Fit IC50 values with XL Fit excel add-in version […].
X indicates the log value of compound concentration, and Y indicates the inhibition ratio (% inhibition).

Data set [1] in a line: Solubility test in buffer, LC-MS. It counts as physicochemical. The conditions noted are these: aqueous buffer, thermodynamic from solid, room temperature, shaking 8 h, pH not given (method: pH 2.0, 6.5, 7.4). On the procedure:
Accurately weigh 3 portions of about 2 mg of the compound, and add appropriate volumes of buffers with the pHs of 2.0, 6.5, and 7.4 respectively to obtain a solution with a concentration of 2 mg/mL. After sonication for 10 min, fix them on a shaker and shaking for 8 h at room temperature. After shaking, sonicate for 10 min and centrifuge for 15 min at 13,000 rpm. Pipette 0.1 mL of supernatant into a new tube, shake and rinse it with 5 mL, and discard the liquid. Transfer 0.5 mL of the supernatant again to a new tube, centrifuge it for 15 min at 13,000 rpm, then collect the supernatant (if necessary, dilute with water) and analyze it by LC-MS. The sample concentrations at 3~5 points are subjected to fitting and reticle for quantification.

Molecules are shown by their SMILES. In brackets after ≈: the same amount, converted by molar mass. A value given as a limit tells only on which side of the number the result lay.

T1 sequence (Q02763 23-1124): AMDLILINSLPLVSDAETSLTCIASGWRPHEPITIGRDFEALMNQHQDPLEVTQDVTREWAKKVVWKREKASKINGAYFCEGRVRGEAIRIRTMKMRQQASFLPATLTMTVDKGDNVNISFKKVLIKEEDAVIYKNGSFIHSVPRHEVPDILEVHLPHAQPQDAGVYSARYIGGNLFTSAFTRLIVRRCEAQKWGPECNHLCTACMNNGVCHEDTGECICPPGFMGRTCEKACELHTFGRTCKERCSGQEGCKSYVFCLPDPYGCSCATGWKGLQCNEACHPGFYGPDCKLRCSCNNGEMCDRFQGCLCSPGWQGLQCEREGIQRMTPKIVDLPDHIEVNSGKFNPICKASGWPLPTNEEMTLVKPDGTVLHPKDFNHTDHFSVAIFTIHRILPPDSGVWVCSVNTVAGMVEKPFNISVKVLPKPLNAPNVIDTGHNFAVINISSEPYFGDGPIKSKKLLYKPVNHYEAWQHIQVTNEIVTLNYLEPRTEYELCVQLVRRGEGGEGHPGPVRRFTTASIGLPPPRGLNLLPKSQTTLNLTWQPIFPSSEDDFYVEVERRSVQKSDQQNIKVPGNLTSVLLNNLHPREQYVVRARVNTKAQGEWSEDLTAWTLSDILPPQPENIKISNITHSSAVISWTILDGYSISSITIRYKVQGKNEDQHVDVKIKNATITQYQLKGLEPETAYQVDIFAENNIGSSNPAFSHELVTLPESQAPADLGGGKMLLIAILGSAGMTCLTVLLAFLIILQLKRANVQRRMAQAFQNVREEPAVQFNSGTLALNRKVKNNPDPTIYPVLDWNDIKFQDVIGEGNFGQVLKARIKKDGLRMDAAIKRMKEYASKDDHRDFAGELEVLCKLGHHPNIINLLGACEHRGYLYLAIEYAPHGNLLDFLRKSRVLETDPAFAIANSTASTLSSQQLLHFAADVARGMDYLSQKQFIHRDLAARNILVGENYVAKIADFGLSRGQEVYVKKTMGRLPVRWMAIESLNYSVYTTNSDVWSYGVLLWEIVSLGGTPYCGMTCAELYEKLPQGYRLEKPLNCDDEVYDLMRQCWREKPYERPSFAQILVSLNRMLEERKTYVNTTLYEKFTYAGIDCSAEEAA
T4 sequence (P35916 25-1363): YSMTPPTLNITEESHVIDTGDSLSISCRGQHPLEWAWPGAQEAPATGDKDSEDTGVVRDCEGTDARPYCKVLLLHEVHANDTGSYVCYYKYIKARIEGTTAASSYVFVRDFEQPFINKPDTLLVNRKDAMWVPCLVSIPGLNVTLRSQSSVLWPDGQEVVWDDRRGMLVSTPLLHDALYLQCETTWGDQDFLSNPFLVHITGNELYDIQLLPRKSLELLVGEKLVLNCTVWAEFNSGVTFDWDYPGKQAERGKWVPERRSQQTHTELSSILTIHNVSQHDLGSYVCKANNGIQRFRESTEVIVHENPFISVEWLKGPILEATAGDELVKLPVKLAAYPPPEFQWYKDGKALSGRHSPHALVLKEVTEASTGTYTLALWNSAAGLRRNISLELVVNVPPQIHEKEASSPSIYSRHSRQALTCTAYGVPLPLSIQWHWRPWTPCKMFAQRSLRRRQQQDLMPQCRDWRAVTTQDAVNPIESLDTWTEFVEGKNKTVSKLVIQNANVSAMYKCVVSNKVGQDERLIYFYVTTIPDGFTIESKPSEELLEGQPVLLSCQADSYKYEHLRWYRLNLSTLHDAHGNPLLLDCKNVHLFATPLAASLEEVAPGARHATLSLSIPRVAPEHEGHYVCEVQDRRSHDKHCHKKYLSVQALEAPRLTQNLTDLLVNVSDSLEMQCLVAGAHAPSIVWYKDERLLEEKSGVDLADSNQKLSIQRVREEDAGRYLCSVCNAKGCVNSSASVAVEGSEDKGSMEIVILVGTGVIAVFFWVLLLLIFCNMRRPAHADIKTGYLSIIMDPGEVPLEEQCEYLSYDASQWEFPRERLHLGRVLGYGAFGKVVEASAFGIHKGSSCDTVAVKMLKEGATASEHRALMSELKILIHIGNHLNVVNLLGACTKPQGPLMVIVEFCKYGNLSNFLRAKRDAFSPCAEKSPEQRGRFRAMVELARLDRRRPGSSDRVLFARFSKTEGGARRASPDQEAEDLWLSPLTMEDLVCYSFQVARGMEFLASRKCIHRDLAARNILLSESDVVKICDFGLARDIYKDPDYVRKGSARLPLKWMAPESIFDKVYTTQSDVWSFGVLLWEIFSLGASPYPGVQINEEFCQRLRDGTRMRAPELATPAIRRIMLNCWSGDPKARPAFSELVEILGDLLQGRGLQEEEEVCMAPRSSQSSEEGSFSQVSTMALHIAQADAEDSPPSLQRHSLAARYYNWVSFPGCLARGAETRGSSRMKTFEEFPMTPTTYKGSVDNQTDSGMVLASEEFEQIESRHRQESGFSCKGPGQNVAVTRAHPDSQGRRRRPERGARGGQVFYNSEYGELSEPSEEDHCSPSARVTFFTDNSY
T3 sequence (P17948 27-1338): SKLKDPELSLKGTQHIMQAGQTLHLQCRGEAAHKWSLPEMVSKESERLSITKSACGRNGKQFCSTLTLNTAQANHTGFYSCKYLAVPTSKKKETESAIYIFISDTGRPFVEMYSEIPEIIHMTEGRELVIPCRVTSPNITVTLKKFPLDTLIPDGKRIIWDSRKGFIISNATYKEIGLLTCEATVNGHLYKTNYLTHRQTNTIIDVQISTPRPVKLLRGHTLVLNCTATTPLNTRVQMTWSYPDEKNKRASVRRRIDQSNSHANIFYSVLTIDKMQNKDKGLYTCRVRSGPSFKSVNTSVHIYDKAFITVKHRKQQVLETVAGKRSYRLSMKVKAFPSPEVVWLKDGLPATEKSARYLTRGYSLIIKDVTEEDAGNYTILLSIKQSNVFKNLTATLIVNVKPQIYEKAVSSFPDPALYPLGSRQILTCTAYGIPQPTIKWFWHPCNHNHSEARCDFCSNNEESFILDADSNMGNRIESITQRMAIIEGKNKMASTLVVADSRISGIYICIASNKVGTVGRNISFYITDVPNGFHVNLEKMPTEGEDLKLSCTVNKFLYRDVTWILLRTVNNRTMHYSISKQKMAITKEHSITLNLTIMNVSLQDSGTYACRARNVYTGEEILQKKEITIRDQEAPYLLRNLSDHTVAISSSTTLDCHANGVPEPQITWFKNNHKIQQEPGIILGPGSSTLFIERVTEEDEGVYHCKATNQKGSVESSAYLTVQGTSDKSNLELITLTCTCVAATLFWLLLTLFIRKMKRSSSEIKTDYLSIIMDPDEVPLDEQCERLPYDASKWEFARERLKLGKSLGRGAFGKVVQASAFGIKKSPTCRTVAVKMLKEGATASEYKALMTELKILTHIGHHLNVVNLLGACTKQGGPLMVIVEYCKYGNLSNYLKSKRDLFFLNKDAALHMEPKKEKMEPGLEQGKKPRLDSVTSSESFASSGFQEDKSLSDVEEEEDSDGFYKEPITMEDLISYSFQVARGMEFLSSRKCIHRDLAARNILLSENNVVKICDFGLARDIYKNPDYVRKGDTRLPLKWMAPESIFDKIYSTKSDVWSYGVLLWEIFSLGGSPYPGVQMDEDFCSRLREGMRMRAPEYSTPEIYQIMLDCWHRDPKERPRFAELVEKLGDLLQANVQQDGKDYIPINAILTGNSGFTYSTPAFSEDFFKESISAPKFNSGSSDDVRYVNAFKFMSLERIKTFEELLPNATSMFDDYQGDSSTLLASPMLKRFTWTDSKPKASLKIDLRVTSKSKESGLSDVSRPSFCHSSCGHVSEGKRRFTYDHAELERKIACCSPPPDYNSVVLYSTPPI
Chain of VEGFR2 (P35968 790-1356 limits assumed): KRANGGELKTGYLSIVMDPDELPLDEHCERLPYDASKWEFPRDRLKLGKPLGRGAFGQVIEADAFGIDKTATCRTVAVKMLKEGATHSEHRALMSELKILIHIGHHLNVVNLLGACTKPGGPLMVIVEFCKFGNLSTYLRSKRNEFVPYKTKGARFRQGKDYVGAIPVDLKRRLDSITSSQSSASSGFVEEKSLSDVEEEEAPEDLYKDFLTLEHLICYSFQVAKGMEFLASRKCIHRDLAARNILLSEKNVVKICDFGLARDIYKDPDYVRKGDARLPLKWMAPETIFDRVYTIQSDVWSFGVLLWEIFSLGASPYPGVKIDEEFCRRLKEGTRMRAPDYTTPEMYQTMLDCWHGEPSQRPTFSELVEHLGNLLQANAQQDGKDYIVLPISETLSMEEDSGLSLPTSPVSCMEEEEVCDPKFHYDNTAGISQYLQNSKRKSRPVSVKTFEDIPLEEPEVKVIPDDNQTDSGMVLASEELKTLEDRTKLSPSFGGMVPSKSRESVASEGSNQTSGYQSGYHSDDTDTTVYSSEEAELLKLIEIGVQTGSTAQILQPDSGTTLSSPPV
T2 sequence (P00533 669-1210 limits assumed): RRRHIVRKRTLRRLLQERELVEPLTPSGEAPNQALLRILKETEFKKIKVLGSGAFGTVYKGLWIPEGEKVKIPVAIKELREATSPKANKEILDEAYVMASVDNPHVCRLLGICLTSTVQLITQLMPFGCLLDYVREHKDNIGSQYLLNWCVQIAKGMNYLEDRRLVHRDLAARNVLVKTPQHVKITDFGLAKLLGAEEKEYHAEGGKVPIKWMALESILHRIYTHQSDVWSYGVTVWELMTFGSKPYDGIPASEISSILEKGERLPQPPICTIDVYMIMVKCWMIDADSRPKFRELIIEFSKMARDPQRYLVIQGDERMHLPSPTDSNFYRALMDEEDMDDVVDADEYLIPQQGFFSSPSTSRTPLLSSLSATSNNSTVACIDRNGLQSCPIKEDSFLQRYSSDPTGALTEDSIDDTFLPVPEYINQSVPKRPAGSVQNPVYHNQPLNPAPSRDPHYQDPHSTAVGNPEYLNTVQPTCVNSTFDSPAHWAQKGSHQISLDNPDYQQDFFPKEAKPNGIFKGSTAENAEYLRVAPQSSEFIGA

Regarding `CN1CCC(CCNC(=O)Nc2snc(OCc3ccc4c(c3)OCC4)c2C(N)=O)CC1` [Compound T053, 3-((2,3-dihydrobenzofuran-6-yl)methoxy)-5-(3-(2-(1-methylpiperidin-4-yl)ethyl)ureido)isothiazole-4-carboxamide], in the data set on melanin, the fraction unbound at 2 h, 2 μM stood at 0.0225. The IC50 at TIE2 was 258 nM; at EGFR, 11400 nM; on VEGFR1, 14.7 nM; on VEGFR2 it was 10.4 nM; in the data set with HUVEC cells, 69.7 nM; on VEGFR3, 17.4 nM.

Regarding `COc1cc(COc2nsc(NC(=O)NCCCCN3CC[C@@H](F)C3)c2C(N)=O)cc(OC)c1` [Compound T064, (R)-3-((3,5-dimethoxybenzyl)oxy)-5-(3-(4-(3-fluoropyrrolidin-1-yl)butyl)ureido)isothiazole-4-carboxamide], the fraction unbound at 2 h, 2 μM in the data set on melanin worked out at 0.0269. Moreover, the values for the IC50 at EGFR, at VEGFR2 and with HUVEC cells were over 60000 nM, 43.3 nM and 79.2 nM, respectively. The solubility at 8 h in data set [1] amounted to 400 µg/mL (≈ 807 µM).

As to `NC(=O)c1c(OCc2cc3c(cc2F)CCO3)nsc1NC(=O)NCCCCN1CCCC1` [Compound T071, 3-((5-fluoro-2,3-dihydrobenzofuran-6-yl)methoxy)-5-(3-(4-(pyrrolidin-1-yl)butyl)ureido)isothiazole-4-carboxamide], the fraction unbound at 2 h, 2 μM with melanin worked out at 0.0231. The IC50 on TIE2 came out at 147 nM; at EGFR, 15200 nM; on VEGFR1 it was 13.4 nM; on VEGFR2 it was 4.36 nM; in the data set with HUVEC cells, 74.5 nM; on VEGFR3 it was 18.7 nM.

`CN1CCC(CCNC(=O)Nc2snc(OCc3cc4c(cc3F)CCO4)c2C(N)=O)CC1` [Compound T073]: the IC50 on EGFR turned out to be 4550 nM; at VEGFR1 it was 5.99 nM; on VEGFR2, 2.73 nM; in the data set on HUVEC cells it was 26.9 nM; at VEGFR3, 10.7 nM.

With `NC(=O)c1c(OCc2cc3c(cc2F)CCO3)nsc1NC(=O)NCCCCN1CC[C@@H](F)C1` [Compound T079, 3-[(5-fluoro-2,3-dihydrobenzofuran-6-yl)methoxy]-5-[4-[(3R)-3-fluoropyrrolidin-1-yl]butylcarbamoylamino]isothiazole-4-carboxamide], in the data set on melanin, the fraction unbound at 2 h, 2 μM is 0.0526. Further, the 50% inhibitory concentration (IC50) is 115 nM at TIE2; 5140 nM on EGFR; 11.8 nM at VEGFR1; 4.47 nM at VEGFR2; 57.7 nM in the data set with HUVEC cells; 21.4 nM on VEGFR3.

For `NC(=O)c1c(OCc2cc3c(cc2F)CCO3)nsc1NC(=O)NCCCCN1CC[C@H](O)C1` [Compound T090, 3-[(5-fluoro-2,3-dihydrobenzofuran-6-yl)methoxy]-5-[4-[(3S)-3-hydroxypyrrolidin-1-yl]butylcarbamoylamino]isothiazole-4-carboxamide], the fraction unbound at 2 h, 2 μM in the data set with melanin stood at 0.025. The IC50 on EGFR came out at 13900 nM; at VEGFR1, 7.73 nM; at VEGFR2 it was 3.55 nM; with HUVEC cells, 46.9 nM; on VEGFR3 it was 13 nM.

Consider `NC(=O)c1c(OCc2cc3c(cc2F)CCO3)nsc1NC(=O)NCCC1CCN(CCF)CC1` [Compound T103, 3-[(5-fluoro-2,3-dihydrobenzofuran-6-yl)methoxy]-5-[2-[1-(2-fluoroethyl)-4-piperidyl]ethylcarbamoylamino]isothiazole-4-carboxamide], for which, in the data set on melanin, the fraction unbound at 2 h, 2 μM is 0.0229. In addition, the IC50 on TIE2 stood at 94.5 nM; at EGFR, 5490 nM; at VEGFR2 it was 4.96 nM; in the data set with HUVEC cells, 66 nM.

`COc1ccc(F)c(COc2nsc(NC(=O)NCCCCN3CC[C@@H](F)C3)c2C(N)=O)c1F` [Compound T111, 3-[(2,6-difluoro-3-methoxy-phenyl)methoxy]-5-[4-[(3R)-3-fluoropyrrolidin-1-yl]butylcarbamoylamino]isothiazole-4-carboxamide]: the fraction unbound at 2 h, 2 μM in the data set on melanin came to 0.0449. The IC50 on TIE2 was determined as 223 nM; on EGFR it was 19800 nM; at VEGFR2, 15.1 nM; in the data set with HUVEC cells, 32 nM.

In the case of `COc1ccc(F)c(COc2nsc(NC(=O)NCCC3CCN(CCF)CC3)c2C(N)=O)c1F` [Compound T112, 3-[(2,6-difluoro-3-methoxy-phenyl)methoxy]-5-[2-[1-(2-fluoroethyl)-4-piperidyl]ethylcarbamoylamino]isothiazole-4-carboxamide], the fraction unbound at 2 h, 2 μM with melanin is 0.0222. Further, the IC50 amounted to 129 nM on TIE2, 10200 nM on EGFR, 14.6 nM on VEGFR2 and 36 nM in the data set on HUVEC cells.

Regarding `COc1ccc(F)c(COc2nsc(NC(=O)NCCCCN3CC[C@H](F)C3)c2C(N)=O)c1F` [Compound T113, 3-[(2,6-difluoro-3-methoxy-phenyl)methoxy]-5-[4-[(3S)-3-fluoropyrrolidin-1-yl]butylcarbamoylamino]isothiazole-4-carboxamide], in the data set with melanin, the fraction unbound at 2 h, 2 μM amounted to 0.0268. Further, the IC50 on TIE2 turned out to be 163 nM; at EGFR, 11800 nM; on VEGFR2 it was 14.7 nM; in the data set with HUVEC cells it was 27 nM.

For `NC(=O)c1c(OCc2cc3c(cc2F)CCO3)nsc1NC(=O)NCCCCN1CC[C@H](F)C1` [Compound T115, 3-[(5-fluoro-2,3-dihydrobenzofuran-6-yl)methoxy]-5-[4-[(3S)-3-fluoropyrrolidin-1-yl]butylcarbamoylamino]isothiazole-4-carboxamide], in the data set with melanin, the fraction unbound at 2 h, 2 μM was determined as 0.0148. The IC50 came out at 117 nM on TIE2, 8220 nM at EGFR, 7.2 nM on VEGFR2 and 36 nM with HUVEC cells.

Consider `NC(=O)c1c(OCc2cc3c(cc2F)CCO3)nsc1NC(=O)NCCCN1CC[C@H](F)C1` [Compound T119, 3-[(5-fluoro-2,3-dihydrobenzofuran-6-yl)methoxy]-5-[3-[(3S)-3-fluoropyrrolidin-1-yl]propylcarbamoylamino]isothiazole-4-carboxamide], for which, in the data set with melanin, the fraction unbound at 2 h, 2 μM was 0.0202. In addition, the IC50 on TIE2 was 205 nM; on EGFR, 19900 nM; in the data set on HUVEC cells it was 67 nM.

For `NC(=O)c1c(OCc2cc(C(=O)NC3CC3)ccc2F)nsc1NC(=O)NCCCN1CC[C@@H](F)C1` [Compound T122, 3-[[5-(cyclopropylcarbamoyl)-2-fluoro-phenyl]methoxy]-5-[3-[(3R)-3-fluoropyrrolidin-1-yl]propylcarbamoylamino]isothiazole-4-carboxamide], the fraction unbound at 2 h, 2 μM with melanin was 0.0372. Besides, the IC50 was found to be 2100 nM at TIE2, 5680 nM on EGFR, 2.55 nM at VEGFR2 and 44 nM in the data set with HUVEC cells. This compound yielded a solubility at 8 h in data set [1] of 1280 µg/mL (≈ 2450 µM).

One may read the IC50 as the concentration needed to halve the response being measured. The term solubility denotes the dissolved amount per volume that the medium holds. Low readings indicate a poorly soluble substance, high ones a readily soluble substance.

For the origin of these results see patent US20260217698A1 (BEYANG THERAPEUTICS CO., LTD., priority 2022, published 2026).
